Key:
[1] = Stability in whole blood, SD rats; type: in vitro ADME; settings: 5 μM, 37° C.
Description: Stabilities of the assay compound in whole blood of CD-1 mice, SD rats, beagle dogs and cynomolgus monkeys were assayed, respectively. On the day of the assay or the day before the assay, fresh whole blood from CD-1 mice, SD rats, beagle dogs, and cynomolgus monkeys was collected using anticoagulant EDTA-K2. Prior to the start of the assay, the whole blood was mixed with PBS in 1:1 (v: v) and the mixture was preheated in a 37° C. water bath for 10 to 20 minutes. 96-well incubation plates were prepared and named T0, T30, T60, […], respectively. In the corresponding incubation plates, including T0, T30, T60 and […] incubation plates, 2 μL of working solutions of the compound or the control compound were mixed with 98 μL of blank whole blood of mice, rats, canines, monkeys and human in duplicate. All samples were incubated in a 37° C. water bath. The final incubation concentration of the compound was 5 μM and the final incubation concentration of the control compound was 2 μM. At the end of incubation for each time point, the corresponding incubation plate was removed and 100 μL of ultrapure water was immediately added to the corresponding sample wells, and mixed well. 800 μL of a solution of 200 ng/mL tolbutamide and labetalol in acetonitrile was added to precipitate the protein. […] 150 μL of supernatant was taken out and analyzed by LC/MS/MS.

[2] = Protein binding rate in plasma by equilibrium dialysis, beagle dogs; type: in vitro ADME; settings: 2 μM, equilibrium dialysis 4 hours
Description: Protein binding rate of the assay compound in plasma of CD-1 mice, SD rats, beagle dogs, cynomolgus monkeys and human was determined by equilibrium dialysis. Plasma samples with a compound concentration of 2 μM were prepared using plasma of the above five species, placed in a 96-well equilibrium dialysis device, and dialyzed with phosphate buffer solution at 37±1° C. for 4 hours. Warfarin was used as the control compound in this assay. The concentrations of the assay compound in plasma and dialysis buffer were determined by LC-MS/MS method.

With `C=C(F)C(=O)N1CCN(c2nc(OC[C@@]34CCCN3C[C@H](F)C4)nc3c2CO[C@H](c2c(F)c(N)cc(C)c2C(F)(F)F)C3)C[C@@H]1CC#N` [Compound of formula (I)] the “Detection of assay compound content within 240 min” value [1] was 115% and the “Protein unbound rate (%)” value [2] was 3.3%.
